Test results: patent US20260200919A1, “SUBSTITUTED AMINOPYRIDINE COMPOUNDS AND METHODS OF TREATING DISEASE USING SAME” (Atavistik Bio, Inc., priority 2023, published 2026)

Legend:
[1] = target: T1, human recombinant kinase full-length AKT1 E17K (Homo sapiens, UniProt P31749, E17K); assay: AKT1 E17K kinase assay (TR-FRET, Lance); assay type: biochemical; conditions: 0.6 nM AKT1 E17K, 50 nM Ulight-CREBtide, either 50 μM ATP or 2 mM ATP (not specified which), 60 min at RT
T1 construct: Purified human recombinant kinase full-length AKT1 E17K was expressed in insect cells; made in house; host or cells: insect cells
T1 sequence (P31749 whole entry E17K): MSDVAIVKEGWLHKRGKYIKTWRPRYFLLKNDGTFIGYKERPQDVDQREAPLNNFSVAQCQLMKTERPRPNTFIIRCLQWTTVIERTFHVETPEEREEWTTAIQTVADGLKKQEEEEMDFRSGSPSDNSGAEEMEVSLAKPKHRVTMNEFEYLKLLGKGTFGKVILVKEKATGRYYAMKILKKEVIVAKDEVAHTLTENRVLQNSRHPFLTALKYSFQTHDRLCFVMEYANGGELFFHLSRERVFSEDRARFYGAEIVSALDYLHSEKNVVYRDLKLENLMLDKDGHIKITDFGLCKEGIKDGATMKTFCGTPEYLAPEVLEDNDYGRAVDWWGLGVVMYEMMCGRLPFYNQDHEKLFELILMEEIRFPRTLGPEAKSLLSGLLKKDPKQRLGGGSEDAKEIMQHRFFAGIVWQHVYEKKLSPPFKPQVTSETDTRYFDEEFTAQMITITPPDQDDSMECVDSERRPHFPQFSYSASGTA
Protocol: AKT1 E17K kinase assay: Inhibitory effects of compounds on AKT1 E17K were undertaken in a 10-pt dose response kinase activity assay measuring phospho-peptide product formation based on TR-FRET signal as described in the following paragraph.
(§1) Purified human recombinant kinase full-length AKT1 E17K was expressed in insect cells and activated in vitro by PDPK1. Ulight™-CREBtide (PerkinElmer, catalog number TRF0107) was used as the peptide substrate. The reaction buffer consisted of 50 mM HEPES pH 7.5, 10 mM MgCl2, 0.01% Triton X-100, 0.01% BSA, 2 mM DTT, 0.6 nM AKT1 E17K, 50 nM. Ulight™ CREBtide and either 50 μM ATP or 2 mM ATP. The compound solution was prepared as 10 mM DMSO stock. […] Final DMSO concentration in the assay was 1%. […] The reaction was stopped after 60 min of incubation at RT by the addition of 10 μL of Detection Mix (PerkinElmer, #CR97-100) consisting of Europium-anti-phospho-CREB (Ser133) (Perkin Elmer, catalog numberTRF0200). Incubation with the detection mix for a further 60 min allowed binding of antibody to the phospho-Ulight™ CREBtide. The fluorescence emissions at 620 nm and 665 nm after excitation at […] was measured using Envision reader. The ratio of the emissions at 665 nm and at 620 nm provided the measure for the amount of phosphorylated CREBtide product of AKT1 E17K kinase activity.

[2] = target: T2, human recombinant kinase full-length wildtype AKT1 (Homo sapiens, UniProt P31749); assay: AKT1 kinase assay (wildtype, TR-FRET, Lance); assay type: biochemical; conditions: 0.6 nM wildtype AKT1, 50 nM Ulight-CREBtide, either 50 μM ATP or 2 mM ATP (not specified which), 60 min at RT
T2 construct: Purified human recombinant kinase full-length wildtype AKT1 was expressed in insect cells; made in house; host or cells: insect cells
T2 sequence (P31749 whole entry): as the sequence (P31749 whole entry E17K) above, with K17E counted along it
Protocol: AKT1 kinase assay: Inhibitory effects of compounds on wildtype AKT1 were undertaken in a 10-pt dose response kinase activity assay measuring phospho-peptide product formation based on TR-FRET signal as described in the following paragraph.
as §1, with “full-length wildtype” for “full-length”, “AKT1” for “AKT1 E17K”, “Ulight™—CREBtide” for “Ulight™-CREBtide”, “AKT1,” for “AKT1 E17K,”, “nM Ulight™-CREBtide” for “nM. Ulight™ CREBtide”

Structure (SMILES) | IC50 [1] [nM] | IC50 [2] [nM]
Nc1ncccc1-c1nc2ccc(-c3ccccc3)nc2n1-c1ccc(NC(=O)c2cccc(C(=O)O)c2)nc1 [Compound 60, 3-((5-(2-(2-aminopyridin-3-yl)-5-phenyl-3H-imidazo[4,5-b]pyridin-3-yl)pyridin-2-yl)carbamoyl)benzoic acid] | < 50 | < 500
Nc1ncccc1-c1nc2ccc(-c3ccccc3)nc2n1-c1ccc(NC(=O)c2cccc(C(=O)O)c2F)nc1 [Compound 61, 3-((5-(2-(2-aminopyridin-3-yl)-5-phenyl-3H-imidazo[4,5-b]pyridin-3-yl)pyridin-2-yl)carbamoyl)-2-fluorobenzoic acid] | 50 to 200 | < 500
Nc1ncccc1-c1nc2ccc(-c3ccccc3)nc2n1-c1ccc(NC(=O)c2ccc(C(=O)O)cc2F)nc1 [Compound 62, 4-((5-(2-(2-aminopyridin-3-yl)-5-phenyl-3H-imidazo[4,5-b]pyridin-3-yl)pyridin-2-yl)carbamoyl)-3-fluorobenzoic acid] | 50 to 200 | < 500
Nc1ncccc1-c1nc2ccc(-c3ccccc3)nc2n1-c1ccc(NC(=O)c2cccc(CC(=O)O)c2)nc1 [Compound 64, 2-(3-((5-(2-(2-aminopyridin-3-yl)-5-phenyl-3H-imidazo[4,5-b]pyridin-3-yl)pyridin-2-yl)carbamoyl)phenyl) acetic acid] | < 50 | < 500
Nc1ncccc1-c1nc2ccc(-c3ccccc3)nc2n1-c1ccc(NC(=O)c2cccc(C(=O)O)c2F)c(F)c1 [Compound 65, 3-((4-(2-(2-aminopyridin-3-yl)-5-phenyl-3H-imidazo[4,5-b]pyridin-3-yl)-2-fluorophenyl)carbamoyl)-2-fluorobenzoic acid] | 200 to 500 | < 500
Cc1cc(C(=O)O)ccc1C(=O)Nc1ccc(-n2c(-c3cccnc3N)nc3ccc(-c4ccccc4)nc32)cc1F [Compound 66, 4-((4-(2-(2-aminopyridin-3-yl)-5-phenyl-3H-imidazo[4,5-b]pyridin-3-yl)-2-fluorophenyl)carbamoyl)-3-methylbenzoic acid] | 200 to 500 | > 500

Further lines, results first:

IC50 [1] [nM] | IC50 [2] [nM] | Structure (SMILES)
< 50 | < 500 | Nc1ncccc1-c1nc2ccc(-c3ccccc3)nc2n1-c1ccc(NC(=O)c2cccc(C(=O)O)c2F)cc1 [Compound 55, 3-[[4-[2-(2-amino-3-pyridyl)-5-phenyl-imidazo[4,5-b]pyridin-3-yl]phenyl]carbamoyl]-2-fluoro-benzoic acid]
< 50 | < 500 | Nc1ncccc1-c1nc2ccc(-c3ccccc3)nc2n1-c1ccc(NC(=O)c2cccc(CC(=O)O)c2)cc1 [Compound 56, 2-(3-((4-(2-(2-aminopyridin-3-yl)-5-phenyl-3H-imidazo[4,5-b]pyridin-3-yl)phenyl)carbamoyl)phenyl)acetic acid]
< 50 | < 500 | Nc1ncccc1-c1nc2ccc(-c3ccccc3)nc2n1-c1ccc(NC(=O)c2cccc(CCC(=O)O)c2)cc1 [Compound 57, 3-(3-((4-(2-(2-aminopyridin-3-yl)-5-phenyl-3H-imidazo[4,5-b]pyridin-3-yl)phenyl)carbamoyl)phenyl) propanoic acid]
50 to 200 | < 500 | Nc1ncccc1-c1nc2ccc(-c3ccccc3)nc2n1-c1ccc(NCc2ccc(C(=O)O)cc2)cc1 [Compound 58, 4-[[4-[2-(2-amino-3-pyridyl)-5-phenyl-imidazo[4,5-b]pyridin-3-yl]anilino]methyl]benzoic acid]
< 50 | < 500 | Nc1ncccc1-c1nc2ccc(-c3ccccc3)nc2n1-c1ccc(NC(=O)c2ccc(C(=O)O)cc2)nc1 [Compound 59, 4-((5-(2-(2-aminopyridin-3-yl)-5-phenyl-3H-imidazo[4,5-b]pyridin-3-yl)pyridin-2-yl)carbamoyl)benzoic acid]
200 to 500 | < 500 | Cc1cc(C(=O)O)ccc1C(=O)Nc1ccc(-n2c(-c3cccnc3N)nc3ccc(-c4ccccc4)nc32)cn1 [Compound 63, 4-[[5-[2-(2-amino-3-pyridyl)-5-phenyl-imidazo[4,5-b]pyridin-3-yl]-2-pyridyl]carbamoyl]-3-methyl-benzoic acid]
